Test results reported in paper PMC10377775, “Identification of a Novel ERK5 (MAPK7) Inhibitor, MHJ-627, and Verification of Its Potent Anticancer Efficacy in Cervical Cancer HeLa Cells” (Current Issues in Molecular Biology, 2023).

Tests used:
ERK5 (MAPK7) [1] = target: T1, ERK5 (MAPK7) (Homo sapiens, UniProt Q13164); experiment: FRET-based Z'-LYTE in vitro kinase assay, […] ng ERK5 (ab126913), […] ATP; format: biochemical
ERK5 (MAPK7) [2] = target: T1, ERK5 (MAPK7); experiment: FRET-based Z'-LYTE in vitro kinase assay, single concentration ([…]), positive control; format: biochemical

T1 sequence (Q13164 2-816): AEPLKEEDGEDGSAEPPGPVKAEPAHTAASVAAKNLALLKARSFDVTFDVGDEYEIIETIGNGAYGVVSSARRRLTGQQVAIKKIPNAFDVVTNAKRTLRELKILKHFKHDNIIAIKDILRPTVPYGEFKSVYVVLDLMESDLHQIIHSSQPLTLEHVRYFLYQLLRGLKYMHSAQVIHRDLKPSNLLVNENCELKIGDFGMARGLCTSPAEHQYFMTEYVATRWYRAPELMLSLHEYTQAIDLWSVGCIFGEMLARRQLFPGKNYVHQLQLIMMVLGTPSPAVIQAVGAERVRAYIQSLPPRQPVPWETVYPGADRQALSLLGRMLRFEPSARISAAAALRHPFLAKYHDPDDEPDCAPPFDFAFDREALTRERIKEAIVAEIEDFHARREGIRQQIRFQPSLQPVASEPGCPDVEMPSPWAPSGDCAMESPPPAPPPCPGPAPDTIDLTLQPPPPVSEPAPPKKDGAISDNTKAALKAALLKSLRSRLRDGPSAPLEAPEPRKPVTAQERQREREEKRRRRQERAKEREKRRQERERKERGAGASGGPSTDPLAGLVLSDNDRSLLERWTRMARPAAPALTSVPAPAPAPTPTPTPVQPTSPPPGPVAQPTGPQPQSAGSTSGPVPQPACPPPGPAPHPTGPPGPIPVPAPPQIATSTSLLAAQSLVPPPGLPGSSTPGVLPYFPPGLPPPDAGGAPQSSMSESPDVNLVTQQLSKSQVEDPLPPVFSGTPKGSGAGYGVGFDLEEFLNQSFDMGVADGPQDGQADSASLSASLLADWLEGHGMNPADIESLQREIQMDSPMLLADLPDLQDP

IC50 (ERK5 (MAPK7) [1]) | SMILES | inhibition at 5 µM (ERK5 (MAPK7) [2])
910 nM | CC(C)CCOc1cc(C(=O)C[n+]2cn(CCC(C)C)c3ccccc32)c(OCCC(C)C)c2ccccc12 [MHJ-627, 3-(2-(1,4-bis(isopentyloxy)naphthalen-2-yl)-2-oxoethyl)-1-isopentyl-1H-benzo[d]imidazol-3-ium bromide] | 
 | CCOc1cc(N2CCC(O)CC2)ccc1Nc1ncc2c(n1)N(C)c1ccccc1C(=O)N2C [XMD8-92] | 56%
